This assay has as its system Radical scavenging activity. Put plainly: Antioxidant activity assessed as DPPH radical scavenging activity after 30 mins. Type of assay: functional.
As to `O=C(/C=C/c1ccccc1)O[C@@H]1[C@@H](O)[C@H](O)[C@@H](CO)O[C@H]1c1c(O)cc2oc3cc(O)c(O)cc3c(=O)c2c1O`, the IC50 is 31.4 µM.
For `O=C(O[C@@H]1[C@@H](O)[C@H](O)[C@@H](CO)O[C@H]1c1c(O)cc2oc3cc(O)c(O)cc3c(=O)c2c1O)c1ccccc1` the value was 32.7 µM; for `O=C(/C=C/c1ccc(O)cc1)O[C@@H]1[C@@H](O)[C@H](O)[C@@H](CO)O[C@H]1c1c(O)cc2oc3cc(O)c(O)cc3c(=O)c2c1O`, 25.4 µM; for `O=C(/C=C/c1ccc(O)c(O)c1)O[C@@H]1[C@@H](O)[C@H](O)[C@@H](CO)O[C@H]1c1c(O)cc2oc3cc(O)c(O)cc3c(=O)c2c1O`, 17.8 µM.
Under `O=c1c2cc(O)c(O)cc2oc2cc(O)c([C@@H]3O[C@H](CO)[C@@H](O)[C@H](O)[C@H]3O)c(O)c12` [MANGIFERIN] stands 35 µM; under `O=C(O[C@@H]1[C@@H](O)[C@H](O)[C@@H](CO)O[C@H]1c1c(O)cc2oc3cc(O)c(O)cc3c(=O)c2c1O)c1ccc(O)cc1` [MURAXANTHONE], 30.7 µM; under `C[C@@H]1O[C@@H](OC[C@H]2O[C@@H](Oc3c(-c4ccc(O)c(O)c4)oc4cc(O)cc(O)c4c3=O)[C@H](O)[C@@H](O)[C@@H]2O)[C@H](O)[C@H](O)[C@H]1O` [RUTIN], 12.3 µM.

(Values after ChEMBL document CHEMBL1147239, “New antioxidant C-glucosylxanthones from the stems of Arrabidaea samydoides” (J Nat Prod, 2003).)
